Biological target: T1, 3-phosphoinositide-dependent protein kinase 1 [50-359] (Homo sapiens, UniProt O15530)
T1 construct: 50-359
T1 sequence (O15530 whole entry): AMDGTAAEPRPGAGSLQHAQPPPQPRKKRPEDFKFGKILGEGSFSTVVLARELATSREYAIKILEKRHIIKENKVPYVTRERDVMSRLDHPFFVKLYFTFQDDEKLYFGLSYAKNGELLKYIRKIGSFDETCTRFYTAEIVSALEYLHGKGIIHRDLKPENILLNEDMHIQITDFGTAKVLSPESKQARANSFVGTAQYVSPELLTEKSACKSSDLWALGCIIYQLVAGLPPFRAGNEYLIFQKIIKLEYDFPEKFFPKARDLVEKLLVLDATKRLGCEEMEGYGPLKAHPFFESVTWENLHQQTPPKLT
Assay: Isothermal titration calorimetry
Settings: pH 7.4
Procedure: For the titrations of PDK1 with adenosine, the protein and the compound were prepared in 50 mMTris-HCl (pH 7.4), 200 mM NaCl, 1 mM DTT and 1% v/v DMSO. For the titration of PDK1 with PS653 theprotein and the compound were prepared in 50 mM Tris-HCl (pH 7.4), 200 mM NaCl, 1 mM DTT and 5% v/vDMSO. […] The titrationof PDK1 with adenosine was performed at 25 C, and the titration of PDK1 with PS653 was made at 37 C. Rawcalorimetric data were corrected for heats of dilution. Binding stoichiometries, enthalpy values and Kd valueswere determined by fitting corrected data to

## O=C1c2ccccc2-c2n[nH]c3cccc1c23 [SP-600125]
  Kd: 1250 nM
